# Counter-ions that a name gives are not always drawn. Like-named read-outs stand apart in the source and are kept apart here.
# How the values were obtained:
# [1] = tested on: intracellular amastigotes of L. infantum; test: Intracellular amastigotes susceptibility in THP-1-derived macrophages (infection index); type: cell-based, Leishmania infantum; conditions: for IC50: 72 h, THP-1-derived macrophages, infection index, two independent assays, read-out: Intracellular Amastigote Susceptibility IC50 ± SEM, L. infantum; for SI (selectivity index): SI for amastigote forms = CC50 THP-1 / IC50 L. infantum
# Protocol: The in vitro intracellular amastigote assay was performed using a THP1 cell line maintained in complete RPMI at 37 °C, 5% CO2. After 24 h differentiation of 5 × 10^5 cells/mL into macrophages in sterile 16-chamber LabTek slides (Thermo Scientific, Waltham, MA, USA) with 25 ng mL^−1 phorbol myristic acid (PMA, Sigma), cells were washed once with warm RPMI to remove non-differentiated and non-adherent cells and further infected with 5 × 10^6 promastigotes/mL in a 10:1 parasite–macrophage ratio for another 24 h. After this period, slides were gently washed once with warm RPMI to remove non-internalised promastigotes. The compounds 2o, 2t, OZ1•HCl, OZ1•MsOH, and OZ1•TsOH at concentrations ranging 400 µM to 50 µM were added, and the slides were further incubated at 37 °C, 5% CO2 for 72 h. After this period, cells were washed with warm PBS, fixed with methanol (Sigma) and stained with Giemsa 5% (Sigma). AmB was used as positive control, and macrophages cultivated in RPMI medium and DMSO (0.5% v/v) were used as negative control. The infection index was determined by multiplying the percentage of infected cells and the number of amastigotes per infected cell as previously described. The results represent the average of two experiments. The IC50 for each compound was calculated by fitting the data as a non-linear regression with variable slope using a dose–response inhibitory model in the GraphPad Prism V 8.0 (Dotmatics, San Diego, CA, USA) program.
# Selectivity index (SI) was determined for each compound as the quotient between the cytotoxicity in cell lines (CC50) and the inhibitory concentration (IC50) (SI = CC50 in mammalian cells/IC50 L. infantum).
# L. tropica promastigotes [2] = test: Leishmania promastigotes in vitro susceptibility (MTT), L. tropica; type: cell-based; conditions: 48 h, at least three independent assays; for IC50: read-out: Promastigotes Susceptibility IC50 ± SEM, L. tropica
# [3] = tested on: L. infantum promastigotes; test: Leishmania promastigotes in vitro susceptibility (MTT), L. infantum; type: cell-based; conditions: 48 h, at least three independent assays; for IC50: read-out: Promastigotes Susceptibility IC50 ± SEM, L. infantum
# [4] = In vitro cytotoxicity assessment in THP-1 cell line (MTT); type: cell-based, human; conditions: human, THP-1 cells, 48 h, MTT; at least three independent assays; read-out: Cytotoxicity CC50 ± SEM
# Protocol: (§1) THP-1 (ATCC® TIB-202TM) human acute monocytic leukemic cell line was obtained from DSMZ, Germany and cultured in RPMI 1640 (Sigma, Darmstadt, Germany) supplemented with 10% (v/v) FBS, 1% (v/v) penicillin-streptomycin (Sigma), and L-glutamine 200 mM (Sigma) at 37 °C, 5% CO2.
# (§2) THP-1 cell line was used to calculate the endoperoxide–pyrazole hybrids’ half-maximal cytotoxic concentration (CC50). THP-1 was plated at a final density of 5 × 10^5 cells/mL, in 96-well flat bottom culture plates (VWR), using six different concentrations of the compounds (OZ1, OZ2, T1, T2 and PIR: 800, 400, 200, 100, 50, 25 µM) and amphotericin B (10, 5, 2.5, 1.25, 0.625, 0.313 µM). A blank (RPMI medium alone) and an untreated control (parasites with RPMI medium plus 1% DMSO as vehicle solution) were also included. All the compounds were plated out in quadruplicate and incubated for 48 h at 37 °C ± 1 °C, 5% CO2.
# (§3) Following the incubation period, 20 µL per well of MTT was added as described in Section 3.5.2. After absorbance readings, the CC50 values of each compound were determined with GraphPad Prism V 9.0 (Dotmatics, San Diego, CA, USA) as previously described. At least three independent assays were performed.
# L. tropica promastigotes [5] = test: Morphometric analysis of L. tropica promastigotes (optical microscopy, Giemsa); type: cell-based, Leishmania tropica; conditions: 48 h, OZ1 300 µM, OZ2 200 µM; for Body size of L. tropica promastigotes: amphotericin B 0.62 µM; for Morphological alterations of L. tropica promastigotes: Giemsa, 1000×
# Protocol: To detect morphological alterations, at the end of the incubation period (48 h), 30 µL of the parasite’s suspension were collected from different treatment concentrations of each compound to prepare smears on glass slides, fixed with methanol, and stained with 5% (v/v) Giemsa (Sigma). Stained slides were examined with bright field in an inverted microscope (Eclipse 80i Nikon, Tokyo, Japan) with 1000× amplification, and images were captured with a Nikon DS-Ri1 camera. Image J (version 1.53k) was used to measure promastigote body and flagellum size of at least 30 parasite samples.
# Data were expressed as mean ± standard error of the mean (SEM), and statistical analysis was performed with one-way ANOVA (Bonferoni’s multiple comparisons test) to determine whether differences between means relatively to untreated control were significant at different levels (p < 0.05, p < 0.01, p < 0.001).
# THP-1 cell line = test: In vitro cytotoxicity assessment in THP-1 cell line (MTT); type: cell-based, human; conditions: for selectivity (SI values): THP-1 cytotoxicity versus antileishmanial activity of free hybrids (promastigotes); for CC50: THP-1 cells, 48 h, MTT, at least three independent assays, read-out: Cytotoxicity CC50 ± SEM
# Protocol: as §1, §2, §3
# [6] = Leishmania infantum, Macrophage
IC50 (L. tropica promastigotes [2]; Leishmania tropica) [µM],IC50 ([3]; Leishmania infantum) [µM],IC50 [3] [µM],IC50 (L. tropica promastigotes [2]) [µM],SMILES,SI (selectivity index) [1],CC50 at 48 h [4] [µM],CC50 (THP-1 cell line) [µM],further results
156 ± 18,123 ± 1,–,–,"CCOC(=O)C1CCC2(CC1)OOC1(O2)C2CC3CC(C2)CC1C3 (stereo not drawn) [2o, Ethyl dispiro[cyclohexane-1,3′-[1,2,4]trioxolane-5′,2″-tricyclo[3.3.1.1^3,7]decane]-4-carboxylate]",1.2,381 ± 172,–,"IC50 [1, 6]: 330 ± 48 µM"
143 ± 9,128 ± 27,–,–,"CCOC(=O)C1CCC2(CC1)OOC1(OO2)C2CC3CC(C2)CC1C3 (stereo not drawn) [2t, Ethyl dispiro[cyclohexane-1,3′-[1,2,4,5]tetraoxane-6′,2″-tricyclo[3.3.1.1^3,7]decane]-4-carboxylate]",8.4,374 ± 119,–,"IC50 [1, 6]: 45 ± 28 µM"
0.3 ± 0.1,0.2 ± 0.01,–,–,"C[C@@H]1[C@H](O)[C@@H](C)/C=C/C=C/C=C/C=C/C=C/C=C/C=C/[C@H](O[C@@H]2O[C@H](C)[C@@H](O)[C@H](N)[C@@H]2O)C[C@@H]2O[C@](O)(C[C@@H](O)C[C@@H](O)[C@H](O)CC[C@@H](O)C[C@@H](O)CC(=O)O[C@H]1C)C[C@H](O)[C@H]2C(=O)O [AmB, Amphotericin B, reference compound]",290,23 ± 3,–,"IC50 [1, 6]: 0.08 ± 0.05 µM; Body size of L. tropica promastigotes (L. tropica promastigotes [5]): 6.463 ± 1.874 µm"
219 ± 25,–,> 400,–,"Nc1ccnn1C(=O)C1CCC2(CC1)OOC1(O2)C2CC3CC(C2)CC1C3 (stereo not drawn) [OZ1, (5-Amino-1H-pyrazol-1-yl)(dispiro[cyclohexane-1,3′-[1,2,4]trioxolane-5′,2″-tricyclo-[3.3.1.1^3,7]-decan]-4-yl)methanone]",–,664 ± 163,–,"Promastigotes Susceptibility IC50 ± SEM, L. infantum [3]: lack of activity; Flagellum size of L. tropica promastigotes (L. tropica promastigotes [5]): 13.561 ± 3.535 µm; Body size of L. tropica promastigotes (L. tropica promastigotes [5]): 5.265 ± 1.733 µm; Morphological alterations of L. tropica promastigotes (L. tropica promastigotes [5]): considerable damage; selectivity (SI values) (THP-1 cell line): < 5"
–,–,164 ± 20,135 ± 36,"Cl.Nc1ccnn1C(=O)C1CCC2(CC1)OOC1(O2)C2CC3CC(C2)CC1C3 (stereo not drawn) [OZ1•HCl, (5-Amino-1H-pyrazol-1-yl) (dispiro[cyclohexane-1,3′-[1,2,4]trioxolane-5′,2″-tricyclo-[3.3.1.1^3,7]-decan]-4-yl) methanone hydrochloride]",5.9,–,509 ± 155,IC50 [1]: 87 ± 39 µM
–,–,183 ± 48,198 ± 24,"CS(=O)(=O)O.Nc1ccnn1C(=O)C1CCC2(CC1)OOC1(O2)C2CC3CC(C2)CC1C3 (stereo not drawn) [OZ1•MsOH, (5-Amino-1H-pyrazol-1-yl) (dispiro[cyclohexane-1,3′-[1,2,4]trioxolane-5′,2″-tricyclo-[3.3.1.1^3,7]-decan]-4-yl) methanone mesylate]",<0.8,–,336 ± 196,IC50 [1]: > 400 µM
–,–,181 ± 35,199 ± 9,"Nc1ccnn1C(=O)C1CCC2(CC1)OOC1(O2)C2CC3CC(C2)CC1C3 (stereo not drawn) [OZ1•TsOH, (5-Amino-1H-pyrazol-1-yl)(dispiro[cyclohexane-1,3′-[1,2,4]trioxolane-5′,2″-tricyclo-[3.3.1.1^3,7]-decan]-4-yl)methanone p-tosylate]",2.1,–,510 ± 109,IC50 [1]: 246 ± 32 µM
–,219 ± 44,–,161 ± 19,"Nc1ccn(C(=O)C2CCC3(CC2)OOC2(O3)C3CC4CC(C3)CC2C4)n1 (stereo not drawn) [OZ2, (3-Amino-1H-pyrazol-1-yl)(dispiro[cyclohexane-1,3′-[1,2,4]trioxolane-5′,2″-tricyclo[3.3.1.1^3,7]decan]-4-yl)methanone]",–,–,202 ± 116,Flagellum size of L. tropica promastigotes (L. tropica promastigotes [5]): 12.404 ± 3.745 µm; Body size of L. tropica promastigotes (L. tropica promastigotes [5]): 9.646 ± 2.744 µm; Morphological alterations of L. tropica promastigotes (L. tropica promastigotes [5]): considerable damage; selectivity (SI values) (THP-1 cell line): < 5
–,–,258 ± 91,> 400,"Nc1ccn(C(=O)C2CCC3(CC2)OOC2(O3)C3CC4CC(C3)CC2C4)n1 (stereo not drawn) [OZ2•HCl, (3-Amino-1H-pyrazol-1-yl) (dispiro[cyclohexane-1,3′-[1,2,4]trioxolane-5′,2″-tricyclo-[3.3.1.1^3,7]decan]-4-yl) methanone hydrochloride]",–,–,425 ± 104,–
–,–,217 ± 47,260 ± 82,"Nc1ccn(C(=O)C2CCC3(CC2)OOC2(O3)C3CC4CC(C3)CC2C4)n1 (stereo not drawn) [OZ2•TsOH, (3-Amino-1H-pyrazol-1-yl) (dispiro[cyclohexane-1,3′-[1,2,4]trioxolane-5′,2″-tricyclo-[3.3.1.1^3,7]decan]-4-yl) methanone p-tosylate]",–,–,479 ± 83,–
> 400,> 400,–,–,"Nc1cc[nH]n1 [PIR, 3-aminopyrazole, reference compound]",–,202 ± 10,–,"Promastigotes Susceptibility IC50 ± SEM, L. tropica (L. tropica promastigotes [2]): devoid of antileishmanial activity; Promastigotes Susceptibility IC50 ± SEM, L. infantum [3]: devoid of antileishmanial activity"
> 400,> 400,–,–,"Nc1ccn(C(=O)C2CCC3(CC2)OOC2(OO3)C3CC4CC(C3)CC2C4)n1 (stereo not drawn) [T1•HCl, (3-Amino-1H-pyrazol-1-yl) (dispiro[cyclohexane-1,3′-[1,2,4,5]tetraoxane-6′,2″-tricyclo [3.3.1.1^3,7]decan]-4-yl) methanone hydrochloride]",–,–,529 ± 108,–
–,–,> 400,> 400,"Nc1ccnn1C(=O)C1CCC2(CC1)OOC1(OO2)C2CC3CC(C2)CC1C3 (stereo not drawn) [T1•TsOH, (5-Amino-1H-pyrazol-1-yl) (dispiro[cyclohexane-1,3′-[1,2,4,5]tetraoxane-6′,2″-tricyclo-[3.3.1.1^3,7]-decan]-4-yl) methanone p-tosylate]",–,–,331 ± 126,–
–,–,313 ± 40,266 ± 8,"Nc1ccn(C(=O)C2CCC3(CC2)OOC2(OO3)C3CC4CC(C3)CC2C4)n1 (stereo not drawn) [T2•HCl, (3-Amino-1H-pyrazol-1-yl) (dispiro[cyclohexane-1,3′-[1,2,4,5]tetraoxane-6′,2″-tricyclo [3.3.1.1^3,7]decan]-4-yl) methanone hydrochloride]",–,–,444 ± 22,–
